Test results from ChEMBL document CHEMBL2413072, “Synthesis and in vitro anticancer studies of novel C-2 arylidene congeners of lantadenes” (2013).
Activity calls are given as the source filed them. No cut-off for these calls is given here.

How the values were obtained:
Assay type in all cases: functional
MDA-MB-468 = test: Growth inhibition of human MDA-MB-468 cells assessed as growth inhibition at 10 uM by sulforhodamine B assay; settings: read-out: GI
T47D [1] = test: Growth inhibition of human T47D cells assessed as growth inhibition at 10 uM by sulforhodamine B assay; settings: read-out: GI
[2] = Growth inhibition of human Hs 578T cells assessed as growth inhibition at 10 uM by sulforhodamine B assay; settings: read-out: GI
DU-145 [3] = test: Growth inhibition of human DU145 cells assessed as growth inhibition at 10 uM by sulforhodamine B assay; settings: read-out: GI
PC-3 = test: Growth inhibition of human PC3 cells assessed as growth inhibition at 10 uM by sulforhodamine B assay; settings: read-out: GI
UO-31 = test: Growth inhibition of human UO31 cells assessed as growth inhibition at 10 uM by sulforhodamine B assay; settings: read-out: GI
TK-10 = test: Growth inhibition of human TK10 cells assessed as growth inhibition at 10 uM by sulforhodamine B assay; settings: read-out: GI
SN12C = test: Growth inhibition of human SN12C cells assessed as growth inhibition at 10 uM by sulforhodamine B assay; settings: read-out: GI
SK-OV-3 = test: Growth inhibition of human SKOV3 cells assessed as growth inhibition at 10 uM by sulforhodamine B assay; settings: read-out: GI
OVCAR-4 [4] = test: Growth inhibition of human OVCAR4 cells assessed as growth inhibition at 10 uM by sulforhodamine B assay; settings: read-out: GI
UACC-62 [5] = test: Growth inhibition of human UACC62 cells assessed as growth inhibition at 10 uM by sulforhodamine B assay; settings: read-out: GI
UACC-257 [6] = test: Growth inhibition of human UACC257 cells assessed as growth inhibition at 10 uM by sulforhodamine B assay; settings: read-out: GI
SK-MEL-5 = test: Growth inhibition of human SK-MEL-5 cells assessed as growth inhibition at 10 uM by sulforhodamine B assay; settings: read-out: GI
MDA-MB-435 = test: Growth inhibition of human MDA-MB-435 cells assessed as growth inhibition at 10 uM by sulforhodamine B assay; settings: read-out: GI
Malme-3M = test: Growth inhibition of human MALME-3M cells assessed as growth inhibition at 10 uM by sulforhodamine B assay; settings: read-out: GI
U-251 = test: Growth inhibition of human U251 cells assessed as growth inhibition at 10 uM by sulforhodamine B assay; settings: read-out: GI
SNB-75 [7] = test: Growth inhibition of human SNB75 cells assessed as growth inhibition at 10 uM by sulforhodamine B assay; settings: read-out: GI
SF-539 [8] = test: Growth inhibition of human SF539 cells assessed as growth inhibition at 10 uM by sulforhodamine B assay; settings: read-out: GI
SF-268 [9] = test: Growth inhibition of human SF268 cells assessed as growth inhibition at 10 uM by sulforhodamine B assay; settings: read-out: GI
SW-620 [10] = test: Growth inhibition of human SW620 cells assessed as growth inhibition at 10 uM by sulforhodamine B assay; settings: read-out: GI
HT-29 = test: Growth inhibition of human HT-29 cells assessed as growth inhibition at 10 uM by sulforhodamine B assay; settings: read-out: GI
HCT-116 = test: Growth inhibition of human HCT116 cells assessed as growth inhibition at 10 uM by sulforhodamine B assay; settings: read-out: GI
NCI-H522 = test: Growth inhibition of human NCI-H522 cells assessed as growth inhibition at 10 uM by sulforhodamine B assay; settings: read-out: GI
NCI-H460 = test: Growth inhibition of human NCI-H460 cells assessed as growth inhibition at 10 uM by sulforhodamine B assay; settings: read-out: GI
NCI-H23 = test: Growth inhibition of human NCI-H23 cells assessed as growth inhibition at 10 uM by sulforhodamine B assay; settings: read-out: GI
NCI-H226 = test: Growth inhibition of human NCI-H226 cells assessed as growth inhibition at 10 uM by sulforhodamine B assay; settings: read-out: GI
K562 = test: Growth inhibition of human K562 cells assessed as growth inhibition at 10 uM by sulforhodamine B assay; settings: read-out: GI
HL-60(TB) = test: Growth inhibition of human HL-60(TB) cells assessed as growth inhibition at 10 uM by sulforhodamine B assay
T47D [11] = test: Growth inhibition of human T47D cells assessed as cell growth at 10 uM by sulforhodamine B assay; settings: read-out: Activity
[12] = Growth inhibition of human Hs 578T cells assessed as cell growth at 10 uM by sulforhodamine B assay; settings: read-out: Activity
DU-145 [13] = test: Growth inhibition of human DU145 cells assessed as cell growth at 10 uM by sulforhodamine B assay; settings: read-out: Activity
RXF 393 = test: Growth inhibition of human RXF393 cells assessed as cell growth at 10 uM by sulforhodamine B assay; settings: read-out: Activity
CAKI-1 = test: Growth inhibition of human CAKI-1 cells assessed as cell growth at 10 uM by sulforhodamine B assay; settings: read-out: Activity
786-0 = test: Growth inhibition of human 786-0 cells assessed as cell growth at 10 uM by sulforhodamine B assay; settings: read-out: Activity
[14] = Growth inhibition of human NCI-ADR-RES cells assessed as cell growth at 10 uM by sulforhodamine B assay; settings: read-out: Activity
OVCAR-8 = test: Growth inhibition of human OVCAR8 cells assessed as cell growth at 10 uM by sulforhodamine B assay; settings: read-out: Activity
OVCAR-4 [15] = test: Growth inhibition of human OVCAR4 cells assessed as cell growth at 10 uM by sulforhodamine B assay; settings: read-out: Activity
UACC-257 [16] = test: Growth inhibition of human UACC257 cells assessed as cell growth at 10 uM by sulforhodamine B assay; settings: read-out: Activity
UACC-62 [17] = test: Growth inhibition of human UACC62 cells assessed as cell growth at 10 uM by sulforhodamine B assay; settings: read-out: Activity
SNB-75 [18] = test: Growth inhibition of human SNB75 cells assessed as cell growth at 10 uM by sulforhodamine B assay; settings: read-out: Activity
SF-539 [19] = test: Growth inhibition of human SF539 cells assessed as cell growth at 10 uM by sulforhodamine B assay; settings: read-out: Activity
SF-295 = test: Growth inhibition of human SF295 cells assessed as cell growth at 10 uM by sulforhodamine B assay; settings: read-out: Activity
SF-268 [20] = test: Growth inhibition of human SF268 cells assessed as cell growth at 10 uM by sulforhodamine B assay; settings: read-out: Activity
SW-620 [21] = test: Growth inhibition of human SW620 cells assessed as cell growth at 10 uM by sulforhodamine B assay; settings: read-out: Activity
HCT-15 = test: Growth inhibition of human HCT15 cells assessed as cell growth at 10 uM by sulforhodamine B assay; settings: read-out: Activity
[22] = Growth inhibition of human HCC2998 cells assessed as cell growth at 10 uM by sulforhodamine B assay; settings: HCC 2998, read-out: Activity
NCI-H322M = test: Growth inhibition of human NCI-H322M cells assessed as cell growth at 10 uM by sulforhodamine B assay; settings: read-out: Activity
A549 = test: Growth inhibition of human A549/ATCC cells assessed as cell growth at 10 uM by sulforhodamine B assay; settings: read-out: Activity
SR = test: Growth inhibition of human SR cells assessed as cell growth at 10 uM by sulforhodamine B assay; settings: read-out: Activity

## C/C=C(/C)C(=O)O[C@@H]1CC(C)(C)C[C@H]2C3=CC[C@@H]4[C@@]5(C)CCC(=O)C(C)(C)[C@@H]5CC[C@@]4(C)[C@]3(C)CC[C@@]12C(=O)O [LANTADENE A]
MDA-MB-468
  inhibition of growth at 10 µM: 49.2%
T47D [1]
  inhibition of growth at 10 µM: 36.1%
[2]
  inhibition of growth at 10 µM: 21.2%
DU-145 [3]
  inhibition of growth at 10 µM: 17.4%
PC-3
  inhibition of growth at 10 µM: 62.8%
UO-31
  inhibition of growth at 10 µM: 57.4%
TK-10
  inhibition of growth at 10 µM: 16.7%
SN12C
  inhibition of growth at 10 µM: 47.6%
SK-OV-3
  inhibition of growth at 10 µM: < 10%
OVCAR-4 [4]
  inhibition of growth at 10 µM: 23.1%
UACC-62 [5]
  inhibition of growth at 10 µM: 50.1%
UACC-257 [6]
  inhibition of growth at 10 µM: 30%
SK-MEL-5
  inhibition of growth at 10 µM: 61.3%
MDA-MB-435
  inhibition of growth at 10 µM: 12.2%
Malme-3M
  inhibition of growth at 10 µM: 19.6%
U-251
  inhibition of growth at 10 µM: 39.9%
SNB-75 [7]
  inhibition of growth at 10 µM: 13.1%
SF-539 [8]
  inhibition of growth at 10 µM: 21.8%
SF-268 [9]
  inhibition of growth at 10 µM: 25.9%
SW-620 [10]
  inhibition of growth at 10 µM: 31.3%
HT-29
  inhibition of growth at 10 µM: 32.1%
HCT-116
  inhibition of growth at 10 µM: 66%
NCI-H522
  inhibition of growth at 10 µM: 33.9%
NCI-H460
  inhibition of growth at 10 µM: 48.5%
NCI-H23
  inhibition of growth at 10 µM: 42%
NCI-H226
  inhibition of growth at 10 µM: 18%
K562
  inhibition of growth at 10 µM: 55.9%
HL-60(TB)
  growth inhibition (GI): Active
T47D [11]
  growth at 10 µM: 63.9%
[12]
  growth at 10 µM: 78.8%
DU-145 [13]
  growth at 10 µM: 82.6%
RXF 393
  growth at 10 µM: 88.5%
CAKI-1
  growth at 10 µM: 48.4%
786-0
  growth at 10 µM: 44.5%
[14]
  growth at 10 µM: 73.1%
OVCAR-8
  growth at 10 µM: 63.7%
OVCAR-4 [15]
  growth at 10 µM: 76.9%
UACC-257 [16]
  growth at 10 µM: 70%
UACC-62 [17]
  growth at 10 µM: 49.9%
SNB-75 [18]
  growth at 10 µM: 86.9%
SF-539 [19]
  growth at 10 µM: 78.2%
SF-295
  growth at 10 µM: 27.6%
SF-268 [20]
  growth at 10 µM: 74.1%
SW-620 [21]
  growth at 10 µM: 68.7%
HCT-15
  growth at 10 µM: 30.2%
[22]
  growth at 10 µM: 61.4%
NCI-H322M
  growth at 10 µM: 68.5%
A549
  growth at 10 µM: 39.2%
SR
  growth at 10 µM: 69.5%

## CC(C)=CC(=O)O[C@@H]1CC(C)(C)C[C@H]2C3=CC[C@@H]4[C@@]5(C)CC[C@H](O)C(C)(C)[C@@H]5CC[C@@]4(C)[C@]3(C)CC[C@@]12C(=O)O [Reduced Lantadene B]
MDA-MB-468
  inhibition of growth at 10 µM: < 10%
T47D [1]
  inhibition of growth at 10 µM: 13.3%
[2]
  inhibition of growth at 10 µM: 14.5%
DU-145 [3]
  inhibition of growth at 10 µM: 13.4%
PC-3
  inhibition of growth at 10 µM: 54.6%
UO-31
  inhibition of growth at 10 µM: 39.1%
TK-10
  inhibition of growth at 10 µM: 20.1%
SN12C
  inhibition of growth at 10 µM: 49.1%
SK-OV-3
  inhibition of growth at 10 µM: 10.6%
OVCAR-4 [4]
  inhibition of growth at 10 µM: 29.3%
UACC-62 [5]
  inhibition of growth at 10 µM: 32.8%
UACC-257 [6]
  inhibition of growth at 10 µM: < 10%
SK-MEL-5
  inhibition of growth at 10 µM: 38.5%
MDA-MB-435
  inhibition of growth at 10 µM: < 10%
Malme-3M
  inhibition of growth at 10 µM: < 10%
U-251
  inhibition of growth at 10 µM: 60.8%
SNB-75 [7]
  inhibition of growth at 10 µM: 26.8%
SF-539 [8]
  inhibition of growth at 10 µM: 45.3%
SF-268 [9]
  inhibition of growth at 10 µM: < 10%
SW-620 [10]
  inhibition of growth at 10 µM: 33.1%
HT-29
  inhibition of growth at 10 µM: 50.7%
HCT-116
  inhibition of growth at 10 µM: 72.8%
NCI-H522
  inhibition of growth at 10 µM: 32.4%
NCI-H460
  inhibition of growth at 10 µM: 49.7%
NCI-H23
  inhibition of growth at 10 µM: 36.6%
NCI-H226
  inhibition of growth at 10 µM: 21.3%
K562
  inhibition of growth at 10 µM: 54.8%
HL-60(TB); read-out: GI
  inhibition of growth at 10 µM: 86%
T47D [11]
  growth at 10 µM: 86.7%
[12]
  growth at 10 µM: 85.5%
DU-145 [13]
  growth at 10 µM: 86.6%
RXF 393
  growth at 10 µM: 85.2%
CAKI-1
  growth at 10 µM: 35.6%
786-0
  growth at 10 µM: 61.8%
[14]
  growth at 10 µM: 54.5%
OVCAR-8
  growth at 10 µM: 59.9%
OVCAR-4 [15]
  growth at 10 µM: 70.7%
UACC-257 [16]
  growth at 10 µM: 92.7%
UACC-62 [17]
  growth at 10 µM: 67.2%
SNB-75 [18]
  growth at 10 µM: 73.2%
SF-539 [19]
  growth at 10 µM: 54.7%
SF-295
  growth at 10 µM: 44.6%
SF-268 [20]
  growth at 10 µM: 92.2%
SW-620 [21]
  growth at 10 µM: 66.9%
HCT-15
  growth at 10 µM: 25.1%
[22]
  growth at 10 µM: 62%
NCI-H322M
  growth at 10 µM: 59.7%
A549
  growth at 10 µM: 23.5%
SR
  growth at 10 µM: 70.2%
